In US7067112B2, “Cephaibols: novel antiparasitics from Acremonium tubakii, process for their production, and use thereof” (Sanofi-Aventis Deutschland GmbH, priority 1999, dated 2006):
Square brackets hold non-standard residues; d marks the D form. Peptide text beside a SMILES is read from it. Hyp = O=C(O)[CH]1C[CH](O)CN1; Phe(ol) = N[CH](CO)Cc1ccccc1; Iva = CC[C](C)(N)C(=O)O; Aib = CC(C)(N)C(=O)O

Legend:
[1] = solubility (physicochemical properties)
Description: (§1) The physicochemical and spectroscopic properties of the cephaibols according to the invention can be summarized as follows: […]

[2] = stability (physicochemical properties); conditions: in neutral, mildly acidic and mildly alkaline medium
Description: as §1

SMILES	solubility in polar organic solvents [1]	solubility in water [1]	stability [2]
CCC(C)(NC(=O)C(CC(C)C)NC(=O)C(C)NC(=O)C(C)(C)NC(=O)C(C)(C)NC(=O)C(C)(C)NC(=O)C(C)(C)NC(=O)C(Cc1ccccc1)NC(C)=O)C(=O)NC(C)(C)C(=O)N1CC(O)CC1C(=O)NC(CCC(N)=O)C(=O)NC(C)(CC)C(=O)N1CC(O)CC1C(=O)NC(C)(C)C(=O)N1CCCC1C(=O)NC(CO)Cc1ccccc1 (stereo not drawn) [Cephaibol A1, AcPhe-Aib-Aib-Aib-Aib-Ala-Leu-Iva-Aib-Hyp-Gln-Iva-Hyp-Aib-Pro-Phe-ol] (Ac-F[Aib][Aib][Aib][Aib]AL[Iva][Aib][Hyp]Q[Iva][Hyp][Aib]P[Phe(ol)]; configuration not given here)	soluble	only slightly soluble	stable
CCC(C)(NC(=O)C(CC(C)C)NC(=O)CNC(=O)C(C)(CC)NC(=O)C(C)(C)NC(=O)C(C)(C)NC(=O)C(C)(C)NC(=O)C(Cc1ccccc1)NC(C)=O)C(=O)NC(C)(C)C(=O)N1CC(O)CC1C(=O)NC(CCC(N)=O)C(=O)NC(C)(CC)C(=O)N1CC(O)CC1C(=O)NC(C)(C)C(=O)N1CCCC1C(=O)NC(CO)Cc1ccccc1 (stereo not drawn) [Cephaibol B, AcPhe-Aib-Aib-Aib-Iva-Gly-Leu-Iva-Aib-Hyp-Gln-Iva-Hyp-Aib-Pro-Phe-ol] (Ac-F[Aib][Aib][Aib][Iva]GL[Iva][Aib][Hyp]Q[Iva][Hyp][Aib]P[Phe(ol)]; configuration not given here)	soluble	only slightly soluble	stable
CCC(C)(NC(=O)C(CC(C)C)NC(=O)CNC(=O)C(C)(C)NC(=O)C(C)(C)NC(=O)C(C)(C)NC(=O)C(C)(C)NC(=O)C(Cc1ccccc1)NC(C)=O)C(=O)NC(C)(C)C(=O)N1CC(O)CC1C(=O)NC(CCC(N)=O)C(=O)NC(C)(C)C(=O)N1CC(O)CC1C(=O)NC(C)(C)C(=O)N1CCCC1C(=O)NC(CO)Cc1ccccc1 (stereo not drawn) [Cephaibol C, AcPhe-Aib-Aib-Aib-Aib-Gly-Leu-Iva-Aib-Hyp-Gln-Aib-Hyp-Aib-Pro-Phe-ol] (Ac-F[Aib][Aib][Aib][Aib]GL[Iva][Aib][Hyp]Q[Aib][Hyp][Aib]P[Phe(ol)]; configuration not given here)	soluble	only slightly soluble	stable
CC(=O)NC(Cc1ccccc1)C(=O)NC(C)(C)C(=O)NC(C)(C)C(=O)NC(C)(C)C(=O)NC(C)(C)C(=O)NCC(=O)NC(CC(C)C)C(=O)NC(C)(C)C(=O)NC(C)(C)C(=O)N1CC(O)CC1C(=O)NC(CCC(N)=O)C(=O)NC(C)(C)C(=O)N1CC(O)CC1C(=O)NC(C)(C)C(=O)N1CCCC1C(=O)NC(CO)Cc1ccccc1 (stereo not drawn) [Cephaibol D, AcPhe-Aib-Aib-Aib-Aib-Gly-Leu-Aib-Aib-Hyp-Gln-Aib-Hyp-Aib-Pro-Phe-ol] (Ac-F[Aib][Aib][Aib][Aib]GL[Aib][Aib][Hyp]Q[Aib][Hyp][Aib]P[Phe(ol)]; configuration not given here)	soluble	only slightly soluble	stable
CCC(C)(NC(=O)C(CCC(N)=O)NC(=O)C1CC(O)CN1C(=O)C(C)(C)NC(=O)C(C)(C)NC(=O)C(CC(C)C)NC(=O)CNC(=O)C(C)(C)NC(=O)C(C)(C)NC(=O)C(C)(C)NC(=O)C(C)(C)NC(=O)C(Cc1ccccc1)NC(C)=O)C(=O)N1CC(O)CC1C(=O)NC(C)(C)C(=O)N1CCCC1C(=O)NC(CO)Cc1ccccc1 (stereo not drawn) [Cephaibol E, AcPhe-Aib-Aib-Aib-Aib-Gly-Leu-Aib-Aib-Hyp-Gln-Iva-Hyp-Aib-Pro-Phe-ol] (Ac-F[Aib][Aib][Aib][Aib]GL[Aib][Aib][Hyp]Q[Iva][Hyp][Aib]P[Phe(ol)]; configuration not given here)	soluble	only slightly soluble	stable
CCC(C)C(NC(=O)C(C)(C)NC(=O)C(CCC(N)=O)NC(=O)C(C)(CC)NC(=O)C(Cc1ccccc1)NC(C)=O)C(=O)NC(C(=O)NC(C)(C)C(=O)NC(CC(C)C)C(=O)NC(C)(C)C(=O)N1CC(O)CC1C(=O)NC(CCC(N)=O)C(=O)NC(C)(C)C(=O)N1CC(O)CC1C(=O)NC(C)(C)C(=O)N1CCCC1C(=O)NC(Cc1ccccc1)C(=O)NC(CO)C(=O)O)C(C)O (stereo not drawn) [Cephaibol P, AcPhe-Iva-Gln-Aib-Ile-Thr-Aib-Leu-Aib-Hyp-Gln-Aib-Hyp-Aib-Pro-Phe-Ser] (Ac-F[Iva]Q[Aib]IT[Aib]L[Aib][Hyp]Q[Aib][Hyp][Aib]PFS-OH; configuration not given here)	soluble	only slightly soluble	stable
CCC(C)C(NC(=O)C(C)(C)NC(=O)C(CCC(N)=O)NC(=O)C(C)(CC)NC(=O)C(Cc1ccccc1)NC(C)=O)C(=O)NC(C(=O)NC(C)(C)C(=O)NC(CC(C)C)C(=O)NC(C)(C)C(=O)N1CCCC1C(=O)NC(CCC(N)=O)C(=O)NC(C)(C)C(=O)N1CC(O)CC1C(=O)NC(C)(C)C(=O)N1CCCC1C(=O)NC(Cc1ccccc1)C(=O)NC(CO)C(=O)O)C(C)O (stereo not drawn) [Cephaibol Q, AcPhe-Iva-Gln-Aib-Ile-Thr-Aib-Leu-Aib-Pro-Gln-Aib-Hyp-Aib-Pro-Phe-Ser] (Ac-F[Iva]Q[Aib]IT[Aib]L[Aib]PQ[Aib][Hyp][Aib]PFS-OH; configuration not given here)	soluble	only slightly soluble	stable
